Results as given in patent US8846951B2 (AbbVie Inc., priority 2009, dated 2014).
Where two headings read alike, the source gives them in different places.

How the values were obtained:
[1] = target: T1, 5HT2C receptors (Homo sapiens, UniProt P28335); test: Human 5-HT2C functional high throughput screening assay in CHO-K1 cells (calcium flux); type: cell-based; set-up: expressed in transfected cells; host or cells: CHO-K1 cells; details: for Emax: 5-HT2C, maximum functional response as percentage relative to the effect of serotonin; for EC50: CHO-K1 cells, calcium flux
T1 sequence (P28335 33-458): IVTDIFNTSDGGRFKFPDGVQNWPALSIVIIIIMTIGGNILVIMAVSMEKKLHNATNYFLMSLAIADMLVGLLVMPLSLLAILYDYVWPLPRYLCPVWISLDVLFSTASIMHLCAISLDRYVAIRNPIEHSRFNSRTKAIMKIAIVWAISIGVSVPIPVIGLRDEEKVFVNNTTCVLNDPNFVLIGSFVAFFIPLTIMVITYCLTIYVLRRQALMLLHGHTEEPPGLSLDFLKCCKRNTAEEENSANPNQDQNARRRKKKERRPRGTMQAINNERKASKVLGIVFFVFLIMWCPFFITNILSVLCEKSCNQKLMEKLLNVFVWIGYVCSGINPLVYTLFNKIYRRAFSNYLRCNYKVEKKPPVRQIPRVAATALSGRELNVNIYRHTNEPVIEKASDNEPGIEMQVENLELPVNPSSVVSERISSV
Method in brief: (§1)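 Frozen CHO-K1 cells overexpressing the receptor were plated, serum-starved overnight, then loaded with Ca4 dye plus 2.5 mM probenecid for 60 min at room temperature. FLIPR fluorescence (ex 480/em 530 nm, 25 °C) after compound addition was normalized to serotonin; EC50 and Emax came from 4-parameter logistic fits.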

[2] = target: T2, 5HT2B receptors (Homo sapiens, UniProt P41595); test: Human 5-HT2B functional high throughput screening assay in CHO-K1 cells (calcium flux); type: cell-based; details: for EC50: CHO-K1 cells, calcium flux
T2 construct: expressed in transfected cells; host or cells: CHO-K1 cells
Method in brief: as §1

[3] = 5-HT2C agonist activity, read-out: EC50
[4] = 5-HT2B agonist activity, read-out: EC50
[5] = 5-HT2B, maximum functional response as percentage relative to the effect of serotonin
[6] = CHO-K1, 5-HT2B, maximum functional response as percentage relative to the effect of serotonin, read-out: Emax

T2 sequence (P41595 whole entry): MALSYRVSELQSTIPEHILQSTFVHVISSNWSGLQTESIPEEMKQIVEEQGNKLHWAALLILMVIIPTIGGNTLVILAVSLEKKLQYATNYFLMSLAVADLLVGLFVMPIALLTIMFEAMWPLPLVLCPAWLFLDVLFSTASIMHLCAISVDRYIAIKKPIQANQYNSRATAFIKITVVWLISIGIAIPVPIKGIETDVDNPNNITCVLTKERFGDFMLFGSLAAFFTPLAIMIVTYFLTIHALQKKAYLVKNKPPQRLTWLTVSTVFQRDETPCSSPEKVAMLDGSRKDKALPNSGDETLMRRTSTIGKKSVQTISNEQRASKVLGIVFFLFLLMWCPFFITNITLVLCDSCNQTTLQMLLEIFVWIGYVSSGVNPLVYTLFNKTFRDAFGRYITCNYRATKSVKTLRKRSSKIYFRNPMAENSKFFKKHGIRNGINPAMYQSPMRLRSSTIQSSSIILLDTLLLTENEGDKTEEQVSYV

Compound	Emax ([1]; CHO-K1)	EC50 ([1]; EC50, 5-HT2C agonist activity)	Emax ([2]; CHO-K1)	EC50 ([2]; EC50, 5-HT2B agonist activity)	EC50 [1, 3]	Emax ([1]; CHO-K1, read-out: Emax)	EC50 [2, 4]	Emax [2, 5]	Emax [2, 6]	Emax [1]
Cc1ccc2c(c1)[C@H]1CNC[C@@H]1CCO2 (relative stereo) [Example 290, Trans-9-methyl-2,3,3a,4,5,10b-hexahydro-1H-[1]benzoxepino[4,5-c]pyrrole]	80%	100 nM	35%	20 nM	–	–	–	–	–	–
CN1C[C@@H]2CNC(=O)c3cc(OCc4ccccc4F)ccc3[C@H]2C1 [Example 207, (3aS,10bS)-8-(2-Fluorobenzyloxy)-2-methyl-1,2,3,3a,4,5-hexahydrobenzo[e]pyrrolo[3,4-c]azepin-6(10bH)-one]	–	–	–	–	1 nM	> 120%	> 10000 nM	inactive	–	–
CN1C[C@H]2CNC(=O)c3cc(-c4cccc(CCO)c4)ccc3[C@@H]2C1 (relative stereo) [Example 253, Trans-8-(3-(2-hydroxyethyl)phenyl)-2-methyl-1,2,3,3a,4,5-hexahydrobenzo[c]pyrrolo[3,4-e]azepin-6(10bH)-one]	–	–	–	–	7 nM	> 120%	> 10000 nM	inactive	–	–
CN1C[C@@H]2CNC(=O)c3cc(OCC4CC4)ccc3[C@H]2C1 [Example 277, (3aS,10bS)-8-(Cyclopropylmethoxy)-2-methyl-1,2,3,3a,4,5-hexahydrobenzo[e]pyrrolo[3,4-c]azepin-6(10bH)-one]	100%	10 nM	–	> 10000 nM	–	–	–	inactive	–	–
COc1cccc(-c2ccc3c(c2)C(=O)NC[C@H]2CN(C)C[C@H]32)c1 [Example 160, (3aS,10bS)-8-(3-Methoxyphenyl)-2-methyl-1,2,3,3a,4,5-hexahydrobenzo[e]pyrrolo[3,4-c]azepin-6(10bH)-one]	–	–	–	–	0.8 nM	> 120%	> 10000 nM	inactive	–	–
O=S(=O)(c1ccc(F)cc1)N1Cc2cccnc2[C@@H]2CNC[C@H]2C1 (relative stereo) [Example 357, Trans-6-[(4-fluorophenyl)sulfonyl]-5,6,7,7a,8,9,10,10a-octahydropyrido[3,2-c]pyrrolo[3,4-e]azepine]	85%	100 nM	–	> 10000 nM	–	–	–	inactive	–	–
O=C1NC[C@@H]2CN(Cc3ccccc3)C[C@H]2c2cccnc21 (relative stereo) [Example 154, Trans-2-benzyl-1,2,3,3a,4,5-hexahydropyrido[3,2-e]pyrrolo[3,4-c]azepin-6(10bH)-one]	90%	–	–	–	2000 nM	–	> 10000 nM	inactive	–	–
c1ccc2c(c1)OCC[C@H]1CNC[C@H]21 [Example 270, (3aR,10bS)-2,3,3a,4,5,10b-Hexahydro-1H-[1]benzoxepino[4,5-c]pyrrole]	> 120%	10 nM	50%	200 nM	–	–	–	–	–	–
CN1C[C@@H]2CNC(=O)c3cc(OCc4ccc(F)c(F)c4)ccc3[C@H]2C1 [Example 210, (3aS,10bS)-8-(3,4-Difluorobenzyloxy)-2-methyl-1,2,3,3a,4,5-hexahydrobenzo[e]pyrrolo[3,4-c]azepin-6(10bH)-one]	–	–	–	–	2 nM	> 120%	> 10000 nM	inactive	–	–
O=S(=O)(c1cccc(OC(F)(F)F)c1)N1Cc2cccnc2[C@@H]2CNC[C@H]2C1 (relative stereo) [Example 366, Trans-6-{[3-(trifluoromethoxy)phenyl]sulfonyl}-5,6,7,7a,8,9,10,10a-octahydropyrido[3,2-c]pyrrolo[3,4-e]azepine]	–	–	–	–	100 nM	85%	200 nM	–	85%	–
C[C@@H](O)c1cccc(-c2ccc3c(c2)C(=O)NC[C@H]2CN(C)C[C@H]32)c1 [Example 249, (3aS,10bS)-8-(3-((R)-1-Hydroxyethyl)phenyl)-2-methyl-1,2,3,3a,4,5-hexahydrobenzo[e]pyrrolo[3,4-c]azepin-6(10bH)-one]	–	–	–	–	2 nM	100%	> 10000 nM	inactive	–	–
CNC(=O)c1ccc(-c2cccc3c2OCC[C@H]2CNC[C@H]32)cc1 (relative stereo) [Example 371, 4-[Trans-2,3,3a,4,5,10b-hexahydro-1H-[1]benzoxepino[4,5-c]pyrrol-7-yl]-N-methylbenzamide]	–	–	–	–	600 nM	95%	> 10000 nM	inactive	–	–
CN1C[C@H]2CNC(=O)c3c(-c4ccccc4)cccc3[C@@H]2C1 (relative stereo) [Example 114, Trans-2-methyl-7-phenyl-1,2,3,3a,4,5-hexahydrobenzo[c]pyrrolo[3,4-e]azepin-6(10bH)-one]	–	–	–	–	5000 nM	80%	> 10000 nM	inactive	–	–
C[C@H](Oc1ccc2c(c1)C(=O)NC[C@@H]1CNC[C@@H]21)c1ccccc1 (mixture of isomers) [Example 155, Trans-8-((S)-1-phenylethoxy)-1,2,3,3a,4,5-hexahydrobenzo[e]pyrrolo[3,4-c]azepin-6(10bH)-one]	> 120%	50 nM	–	> 10000 nM	–	–	–	inactive	–	–
O=C1NC[C@@H]2CNC[C@H]2c2ccc(OCc3ccccc3F)cc21 [Example 180, (3aS,10bR)-8-(2-Fluorobenzyloxy)-1,2,3,3a,4,5-hexahydrobenzo[e]pyrrolo[3,4-c]azepin-6(10bH)-one]	> 120%	–	–	> 10000 nM	–	–	–	inactive	–	–
COc1ccc2c(c1)[C@H]1CNC[C@@H]1CCC2=O [Example 259, (3aR,10bS)-9-Methoxy-2,3,3a,4,5,10b-hexahydrobenzo[3,4]cyclohepta[1,2-c]pyrrol-6(1H)-one]	> 120%	60 nM	85%	1000 nM	–	–	–	–	–	–
O=S(=O)(c1cccc(C(F)(F)F)c1)N1Cc2cccnc2[C@@H]2CNC[C@H]2C1 (relative stereo) [Example 345, Trans-6-{[3-(trifluoromethyl)phenyl]sulfonyl}-5,6,7,7a,8,9,10,10a-octahydropyrido[3,2-c]pyrrolo[3,4-e]azepine]	–	–	–	–	400 nM	80%	200 nM	–	90%	–
C[C@@H](O)c1cccc(-c2ccc3c(c2)C(=O)NC[C@H]2CN(C)C[C@H]32)c1 [Example 294, (3aS,10bS)-8-{3-[(1R)-1-hydroxyethyl]phenyl}-2-methyl-2,3,3a,4,5,10b-hexahydropyrrolo[3,4-d][2]benzazepin-6(1H)-one]	–	–	–	–	–	–	> 10000 nM	inactive	–	100%
COc1ccc(-c2ccc3c(c2)C(=O)NC[C@@H]2CN(C)C[C@@H]32)cc1 [Example 159, (3aR,10bR)-8-(4-Methoxyphenyl)-2-methyl-1,2,3,3a,4,5-hexahydrobenzo[e]pyrrolo[3,4-c]azepin-6(10bH)-one]	–	–	–	–	–	110%	> 10000 nM	inactive	–	–
CN1C[C@@H]2CNC(=O)c3cc(Cl)ccc3[C@H]2C1 [Example 199, (3aS,10bS)-8-Chloro-2-methyl-1,2,3,3a,4,5-hexahydrobenzo[e]pyrrolo[3,4-c]azepin-6(10bH)-one]	> 120%	10 nM	–	> 10000 nM	–	–	–	inactive	–	–
